CMC and MIC data for 3 molecules are collected here from publication PMC11946258, “Self-Assembly, Antimicrobial Properties and Biodegradability of Ester-Functionalized Choline-Based Surface-Active Ionic Liquids” (Molecules, 2025).

Series [1] can be described thus: Critical micelle concentration by pyrene fluorescence. In kind it is physicochemical. The following applies: fluorescence (pyrene I1/I3), aqueous solution, 25 °C. Here is the method:
The aggregation behavior of ester-functionalized choline-based ILs was investigated through fluorescence measurements using pyrene as a solvatochromic probe. By monitoring the polarity of pyrene’s microenvironment at varying IL concentrations, the intensity ratio of pyrene’s first (I1) and third (I3) vibronic peaks was analyzed (Figure 3). A sharp decline in the I1/I3 ratio indicated the formation of IL aggregates. The critical micelle concentration (CMC) was determined as the midpoint of the transition, with the data fitting well to sigmoidal Boltzmann-type curves.
A Shimadzu RF 540 spectrofluorometer equipped with cell holder thermostatical controlled at 25 °C was used to detect steady-state fluorescence. The fluorescent probe, pyrene, was used at a concentration of 1 × 10^−6 M. After irradiation at 332 nm, the fluorescence emission spectra of pyrene dissolved in aqueous CnECholBr solutions were recorded from 340 to 450 nm.

A further series relates to Candida parasilopsis. Kind of series: Antifungal MIC broth microdilution. In kind it is cell-based. The following applies: Candida parapsilosis ATCC 22019, RPMI 1640, 24 h, 30 °C. Here is the method:
(§1) The antimicrobial activity of cholinium-based ILs with an ester group in the alkyl chain was evaluated against a range of representative bacteria and fungi.
(§2) The antifungal activity was evaluated against the following yeasts: Candida albicans ATCC 90028, Candida tropicalis ATCC 7349, Candida parapsilosis ATCC 22019, Candida glabrata ATCC 66032. Frozen yeast stocks were inoculated into Sabourauds’s agar (SBA) and culture plates and incubated at 35 °C for 24 h. Three to four colonies of each strain were dispersed in sterile medium, Roswell Park Memorial Institute medium (RPMI 1640 medium), to obtain dispersions with a turbidity equivalent to 0.5 on the MacFarland scale (McFarland DEN-1B Grant-bio model densitometer). Minimum fungicidal concentrations (MFC) values—the lowest concentration of an antimicrobial agent that prevents the establishment of visible microbial growth after 24 h at 30 °C—were used to determine in vitro antifungal activity. MFCs were determined using a broth microdilution assay. Serial dilutions of each IL, ranging from 512 to 2 µg/mL, were dissolved in RPMI 1640 medium and dispensed (100 µL) into the appropriate wells of a 96-well polystyrene microtiter plate. The nutrient broth starter culture of each yeast strain (100 μL) was added to achieve a final inoculum of approximately 7.5 × 10^5 CFU per mL for yeast. Nutrient broth medium without the compound was used as a growth control. The development of turbidity in an inoculated medium is a function of growth and reflects an increase in both mass and cell number. To confirm this observation, 20 μL of resazurin at 0.015% w/v was added to each well and allowed to react for approximately 2 h at 30 °C. After the incubation period, the indicator of microbial growth, i.e., a change from blue to pink, confirmed the MIC value.
A general note: Broth dilution looks for growth in wells or tubes with falling amounts of substance.

A further series concerns Candida albicans. The series can be described thus: Antifungal MIC broth microdilution. The class given is cell-based. The following applies: ATCC90028; Candida albicans ATCC 90028, RPMI 1640, 24 h, 30 °C. Here is the method:
as §1, §2

In a further series the test system is Candida tropicalis. Kind of series: Antifungal MIC broth microdilution. The class given is cell-based. The following applies: ATCC7349; Candida tropicalis ATCC 7349, RPMI 1640, 24 h, 30 °C. Here is the method: as §1, §2
A further series has as its system Candida glabrata. Kind of series: Antifungal MIC broth microdilution. The note with it: Nakaseomyces glabratus, ATCC66032; Candida glabrata ATCC 66032, RPMI 1640, 24 h, 30 °C. In kind it is cell-based. Here is the method: as §1, §2

Bounds are passed on as bounds.

`CCCCCCCCCCOC(=O)C[N+](C)(C)CCO` [C10ECholBr] displayed a CMC in series [1] of 9.0 ± 0.5 mM. The MIC in the series on Candida parasilopsis, against Candida albicans, in the series with Candida tropicalis and against Candida glabrata was above 256 mg/L in each case.

Turning to `CCCCCCCCCCCCOC(=O)C[N+](C)(C)CCO` [C12ECholBr], the CMC in series [1] is 2.9 ± 0.1 mM. Moreover, the minimum inhibitory concentration (MIC) in the series with Candida parasilopsis is above 256 mg/L; in the series on Candida albicans it was 64 mg/L; with Candida tropicalis, above 256 mg/L; in the series on Candida glabrata, 32 mg/L.

`CCCCCCCCCCCCCCOC(=O)C[N+](C)(C)CCO.[Br-]` [C14ECholBr, N-(2-hydroxyethyl)-N,N-dimethyl-2-oxo-2-(tetradecyloxy)ethan-1-aminium bromide] gave a CMC in series [1] of 1.3 ± 0.1 mM. Besides, the MIC in the series with Candida parasilopsis, in the series with Candida albicans, in the series on Candida tropicalis and in the series on Candida glabrata was above 256 mg/L each time.

As a reminder, the MIC is the least concentration at which growth counts as inhibited. Low readings indicate a more susceptible organism, high ones a less susceptible organism.
